{
  "source": "patent US7781438B2",
  "about": "“Indolylmaleimide derivatives” (Novartis AG, priority 2005, dated 2010)",
  "key": {"[1]": {"molecular_target": "T1, Human recombinant PKCα (Homo sapiens, UniProt P17252)", "T1 construct": "purchased Oxford Biomedical Research", "test": "Protein Kinase Cα assay", "format": "biochemical", "conditions": "single compounds", "experimental": "(§1) The compounds of the invention are tested for their activity on different PKC isoforms according to the following method. Assay is performed in a white with clear bottom 384-well microtiterplate with non-binding surface. The reaction mixture (25 μl) contains 1.5 μM of a tridecapeptide acceptor substrate that mimics the pseudo substrate sequence of PKC a with the Ala→Ser replacement, 10 μM ^33P-ATP, 10 mM Mg(NO3)2, 0.2 mM CaCl2, PKC at a protein concentration varying from 25 to 400 ng/ml (depending on the isotype used), lipid vesicles (containing 30 mol % phosphatidylserine, 5 mol % DAG and 65 mol % phosphatidylcholine) at a final lipid concentration of 0.5 mM, in 20 mM Tris-HCl buffer pH 7.4+0.1% BSA. Incubation is performed for 60 min at room temperature. Reaction is stopped by adding […] of stop mix (100 mM EDTA, 200 μM ATP, 0.1% Triton X-100, 0.375 mg/well streptavidin-coated SPA beads in phosphate buffered saline w/o Ca, Mg. After 10 min incubation at room temperature, the suspension is spun down for 10 min at 300 g. Incorporated radioactivity is measured in a Trilux counter for 1 min. IC50 measurement is performed on a routine basis by incubating a serial dilution of inhibitor at concentrations ranging between 1-1000 μM. IC50 values are calculated from the graph by curve fitting with XL Fit® software.\nHuman recombinant PKCα was obtained from Oxford Biomedical Research and is used under the assay conditions as described under Section A.1 above."}, "[2]": {"molecular_target": "T2, Human recombinant PKCβ1 (Homo sapiens, UniProt P05771)", "T2 construct": "purchased Oxford Biomedical Research", "T2 sequence (P05771 whole entry)": "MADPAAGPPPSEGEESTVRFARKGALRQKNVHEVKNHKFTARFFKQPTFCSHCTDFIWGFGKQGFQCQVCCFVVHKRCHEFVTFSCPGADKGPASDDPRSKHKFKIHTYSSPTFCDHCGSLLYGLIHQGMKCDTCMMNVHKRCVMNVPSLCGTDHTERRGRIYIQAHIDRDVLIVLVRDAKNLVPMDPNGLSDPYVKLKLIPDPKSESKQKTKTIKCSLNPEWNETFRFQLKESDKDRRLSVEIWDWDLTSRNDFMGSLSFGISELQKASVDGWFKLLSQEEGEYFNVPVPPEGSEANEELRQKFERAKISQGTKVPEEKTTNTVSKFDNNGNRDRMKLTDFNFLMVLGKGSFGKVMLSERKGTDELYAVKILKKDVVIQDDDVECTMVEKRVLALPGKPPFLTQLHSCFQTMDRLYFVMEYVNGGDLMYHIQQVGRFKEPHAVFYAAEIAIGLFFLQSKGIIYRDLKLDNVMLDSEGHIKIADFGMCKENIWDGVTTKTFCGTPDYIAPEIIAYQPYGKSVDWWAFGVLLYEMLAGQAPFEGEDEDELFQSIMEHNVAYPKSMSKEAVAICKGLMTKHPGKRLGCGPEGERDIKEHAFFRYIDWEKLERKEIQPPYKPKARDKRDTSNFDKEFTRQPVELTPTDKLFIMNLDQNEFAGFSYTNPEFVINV", "test": "Protein Kinase Cβ1 assay", "format": "biochemical", "conditions": "for IC50: human recombinant PKCβ1, single compounds", "experimental": "as §1\nHuman recombinant PKCβ1 was obtained from Oxford Biomedical Research and is used under the assay conditions as described under Section A.1 above."}, "[3]": {"molecular_target": "T3, Human recombinant PKCδ (Homo sapiens, UniProt Q05655)", "T3 construct": "purchased Oxford Biomedical Research", "T3 sequence (Q05655 whole entry)": "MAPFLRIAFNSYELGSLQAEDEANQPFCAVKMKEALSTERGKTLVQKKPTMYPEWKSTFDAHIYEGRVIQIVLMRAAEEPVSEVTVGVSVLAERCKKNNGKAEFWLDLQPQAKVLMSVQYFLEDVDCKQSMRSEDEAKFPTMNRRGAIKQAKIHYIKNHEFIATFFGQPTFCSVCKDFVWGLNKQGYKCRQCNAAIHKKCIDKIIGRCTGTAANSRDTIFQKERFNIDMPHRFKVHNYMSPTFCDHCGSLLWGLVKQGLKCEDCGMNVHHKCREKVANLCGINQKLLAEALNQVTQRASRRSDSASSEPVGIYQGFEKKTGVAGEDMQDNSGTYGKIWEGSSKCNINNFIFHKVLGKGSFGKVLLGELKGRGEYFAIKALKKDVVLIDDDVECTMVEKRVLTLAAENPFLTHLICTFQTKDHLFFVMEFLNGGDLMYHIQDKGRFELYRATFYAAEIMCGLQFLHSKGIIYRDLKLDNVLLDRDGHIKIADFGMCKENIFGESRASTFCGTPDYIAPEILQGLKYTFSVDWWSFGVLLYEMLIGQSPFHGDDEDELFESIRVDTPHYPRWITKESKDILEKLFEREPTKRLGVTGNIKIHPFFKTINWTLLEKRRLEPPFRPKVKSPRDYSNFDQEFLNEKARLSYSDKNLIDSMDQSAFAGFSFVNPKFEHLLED", "test": "Protein Kinase Cδ assay", "format": "biochemical", "experimental": "as §1, with “software. […]” for “software.”"}, "[4]": {"molecular_target": "T4, Human recombinant PKCη (Homo sapiens, UniProt P24723)", "T4 construct": "purchased PanVera", "T4 sequence (P24723 whole entry)": "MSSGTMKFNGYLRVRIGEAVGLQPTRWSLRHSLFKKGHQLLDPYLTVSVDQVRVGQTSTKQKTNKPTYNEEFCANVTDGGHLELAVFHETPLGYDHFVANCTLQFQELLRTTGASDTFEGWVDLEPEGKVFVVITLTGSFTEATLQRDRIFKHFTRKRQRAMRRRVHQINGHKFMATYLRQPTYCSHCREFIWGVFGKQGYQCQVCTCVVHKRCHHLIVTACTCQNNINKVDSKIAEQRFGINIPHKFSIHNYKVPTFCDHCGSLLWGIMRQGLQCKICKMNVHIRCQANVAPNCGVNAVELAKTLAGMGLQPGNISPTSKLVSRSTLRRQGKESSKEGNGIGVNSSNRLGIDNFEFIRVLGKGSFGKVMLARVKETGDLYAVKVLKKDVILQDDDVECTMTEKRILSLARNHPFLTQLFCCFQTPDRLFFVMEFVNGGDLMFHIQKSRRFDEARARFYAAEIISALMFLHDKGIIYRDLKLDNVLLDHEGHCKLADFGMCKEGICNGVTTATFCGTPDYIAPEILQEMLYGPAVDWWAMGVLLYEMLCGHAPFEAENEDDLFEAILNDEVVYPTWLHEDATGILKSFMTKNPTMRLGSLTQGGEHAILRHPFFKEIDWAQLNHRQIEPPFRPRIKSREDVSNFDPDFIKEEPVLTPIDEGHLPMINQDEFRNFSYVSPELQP", "test": "Protein Kinase Cη assay", "format": "biochemical", "experimental": "as §1, with “software. […]” for “software.”"}, "[5]": {"molecular_target": "Human recombinant PKCθ (Homo sapiens, UniProt Q04759)", "sequence (Q04759 whole entry)": "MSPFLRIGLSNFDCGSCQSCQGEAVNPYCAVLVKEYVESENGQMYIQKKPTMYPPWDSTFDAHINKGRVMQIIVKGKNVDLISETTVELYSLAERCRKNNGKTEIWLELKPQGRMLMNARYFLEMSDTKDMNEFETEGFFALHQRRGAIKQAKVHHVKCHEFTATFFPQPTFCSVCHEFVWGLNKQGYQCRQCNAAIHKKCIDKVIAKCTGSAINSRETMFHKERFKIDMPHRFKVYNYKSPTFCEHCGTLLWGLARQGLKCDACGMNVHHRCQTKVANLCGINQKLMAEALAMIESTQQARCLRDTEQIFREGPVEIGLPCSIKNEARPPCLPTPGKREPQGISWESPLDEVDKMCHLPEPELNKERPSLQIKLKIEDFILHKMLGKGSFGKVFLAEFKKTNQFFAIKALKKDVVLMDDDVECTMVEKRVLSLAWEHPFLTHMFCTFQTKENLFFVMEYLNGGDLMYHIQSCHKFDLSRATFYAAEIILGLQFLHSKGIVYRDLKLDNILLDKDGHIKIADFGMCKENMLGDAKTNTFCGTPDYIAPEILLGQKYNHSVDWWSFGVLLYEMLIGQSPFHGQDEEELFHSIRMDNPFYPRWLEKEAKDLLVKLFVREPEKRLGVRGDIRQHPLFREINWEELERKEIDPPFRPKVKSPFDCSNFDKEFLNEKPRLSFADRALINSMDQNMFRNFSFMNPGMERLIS", "test": "Protein Kinase C θ assay", "format": "biochemical", "experimental": "as §1, with “software. […]” for “software.”"}, "[6]": {"molecular_target": "T5, Human recombinant PKCε (Homo sapiens, UniProt Q02156)", "T5 construct": "purchased Oxford Biomedical Research", "T5 sequence (Q02156 1-737)": "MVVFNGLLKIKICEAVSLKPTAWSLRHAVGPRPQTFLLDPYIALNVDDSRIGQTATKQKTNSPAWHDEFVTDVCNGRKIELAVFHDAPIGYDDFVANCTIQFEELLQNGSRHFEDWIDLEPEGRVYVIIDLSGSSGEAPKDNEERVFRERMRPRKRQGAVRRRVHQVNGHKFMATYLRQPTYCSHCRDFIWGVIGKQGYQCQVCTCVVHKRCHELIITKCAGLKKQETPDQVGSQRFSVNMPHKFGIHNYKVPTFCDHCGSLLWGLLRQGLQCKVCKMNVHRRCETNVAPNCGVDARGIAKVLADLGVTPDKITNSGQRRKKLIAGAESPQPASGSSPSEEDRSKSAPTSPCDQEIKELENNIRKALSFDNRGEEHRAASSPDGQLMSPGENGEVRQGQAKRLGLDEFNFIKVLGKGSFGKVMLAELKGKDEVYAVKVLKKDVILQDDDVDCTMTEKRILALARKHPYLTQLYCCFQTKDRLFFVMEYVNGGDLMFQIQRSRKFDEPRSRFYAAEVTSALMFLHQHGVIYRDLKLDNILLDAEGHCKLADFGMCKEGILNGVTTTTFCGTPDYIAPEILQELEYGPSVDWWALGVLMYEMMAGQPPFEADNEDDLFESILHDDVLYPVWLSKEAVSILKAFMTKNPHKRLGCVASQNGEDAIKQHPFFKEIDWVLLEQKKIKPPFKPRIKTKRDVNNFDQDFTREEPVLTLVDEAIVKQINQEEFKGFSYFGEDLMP", "test": "Protein Kinase Cε assay", "format": "biochemical", "experimental": "as §1, with “software. […]” for “software.”"}, "[7]": {"system": "spleen cells from CBA and BALB/c mice", "test": "Allogeneic Mixed Lymphocyte Reaction (MLR), compared with BM assay", "format": "cell-based", "experimental": "The two-way MLR is performed according to standard procedures (J. Immunol. Methods, 1973, 2, 279 and Meo T. et al., Immunological Methods, New York, Academic Press, 1979, 227-39). Briefly, spleen cells from CBA and BALB/c mice (1.6×10^5 cells from each strain per well in flat bottom tissue culture microtiter plates, 3.2×10^5 in total) are incubated in RPMI medium containing 10% FCS, 100 U/ml penicillin, 100 μg/ml streptomycin (Gibco BRL, Basel, Switzerland), 50 μM 2-mercaptoethanol (Fluka, Buchs, Switzerland) and serially diluted compounds. Seven three-fold dilution steps in duplicates per test compound are performed. After four days of incubation 1 μCi ^3H-thymidine is added. Cells are harvested after an additional five-hour incubation period, and incorporated ^3H-thymidine is determined according to standard procedures. […]\nThe ratios of the IC50 value for PKC β to the IC50 value for PKCα, of the IC50 value for PKC δ to the IC50 value for PKCα, of the IC50 value for PKC δ to the IC50 value for PKCα, of the IC50 value for PKC ε to the IC50 value for PKCα, of the IC50 value for PKC η to the IC50 value for PKCα, of the IC50 value for PKC θ to the IC50 value for PKCα, of the IC50 value as determined by the MLR assay and to the IC50 value as determined by the BM assay, obtained for some compounds of the invention are indicated in table 11."}},
  "data": [
    {"molecule": "COc1cccc2c(C3=C(c4c(Cl)ccc5ccc(CN(C)C)cc45)C(=O)NC3=O)c[nH]c12", "note": "[Example 37]", "values": [
      {"measurement": "IC50", "setting": "[1]", "result": 3, "unit": "nM"}
    ]},
    {"molecule": "Cc1cccc2c(C3=C(c4c(Cl)ccc5ncc(CN(C)C)cc45)C(=O)NC3=O)c[nH]c12", "note": "[Example 136]", "values": [
      {"measurement": "IC50", "setting": "[2]", "result": 51, "unit": "nM"}
    ]},
    {"molecule": "COCCOc1ccc2c(C3=C(c4c(Cl)ccc5ccc(CN(C)C)cc45)C(=O)NC3=O)c[nH]c2c1", "note": "[Example 38]", "values": [
      {"measurement": "IC50", "setting": "[1]", "result": 9, "unit": "nM"}
    ]},
    {"molecule": "CN(C)Cc1ccc2ccc(Cl)c(C3=C(c4cn5c6c(cccc46)OCCC5)C(=O)NC3=O)c2c1", "note": "[Example 20]", "values": [
      {"measurement": "β/α (ratio of the IC50 value for PKC β to the IC50 value for PKCα)", "setting": "[2]", "result": 0.4},
      {"measurement": "IC50", "setting": "[2]", "result": 12.4, "unit": "nM"},
      {"measurement": "IC50", "setting": "[1]", "result": 28, "unit": "nM"},
      {"measurement": "δ/α (ratio of the IC50 value for PKC δ to the IC50 value for PKCα)", "setting": "[3]", "result": 30.6},
      {"measurement": "η/α (ratio of the IC50 value for PKC η to the IC50 value for PKCα)", "setting": "[4]", "result": ">35.7"},
      {"measurement": "θ/α (ratio of the IC50 value for PKC θ to the IC50 value for PKCα)", "setting": "[5]", "result": 14.2},
      {"measurement": "ε/α (ratio of the IC50 value for PKC ε to the IC50 value for PKCα)", "setting": "[6]", "result": ">35.7"},
      {"measurement": "BM/MLR (ratio of IC50 by the BM assay and IC50 by the MLR assay)", "setting": "[7]", "result": ">10"}
    ]},
    {"molecule": "CN(C)Cc1cc2c(C3=C(c4c[nH]c5ccccc45)C(=O)NC3=O)c(Cl)ccc2cn1", "note": "[Example 146]", "values": [
      {"measurement": "IC50", "setting": "[2]", "result": 25, "unit": "nM"}
    ]},
    {"molecule": "Cn1cc(C2=C(c3c(Cl)ccc4ccc(CNCCF)cc34)C(=O)NC2=O)c2ccccc21", "note": "[Example 1, 3-{2-Chloro-7-[(2-fluoro-ethylamino)-methyl]-naphthalen-1-yl}-4-(1-methyl-1H-indol-3-yl)-pyrrole-2,5-dione]", "values": [
      {"measurement": "β/α (ratio of the IC50 value for PKC β to the IC50 value for PKCα)", "setting": "[2]", "result": 0.5},
      {"measurement": "δ/α (ratio of the IC50 value for PKC δ to the IC50 value for PKCα)", "setting": "[3]", "result": 7.1},
      {"measurement": "η/α (ratio of the IC50 value for PKC η to the IC50 value for PKCα)", "setting": "[4]", "result": 39.3},
      {"measurement": "θ/α (ratio of the IC50 value for PKC θ to the IC50 value for PKCα)", "setting": "[5]", "result": 2.9},
      {"measurement": "ε/α (ratio of the IC50 value for PKC ε to the IC50 value for PKCα)", "setting": "[6]", "result": 19.4},
      {"measurement": "BM/MLR (ratio of IC50 by the BM assay and IC50 by the MLR assay)", "setting": "[7]", "result": 41.3}
    ]},
    {"molecule": "CN(C)Cc1ccc2ccc(Cl)c(C3=C(c4cn(C)c5ccccc45)C(=O)NC3=O)c2n1", "note": "[Example 163]", "values": [
      {"measurement": "IC50", "setting": "[2]", "result": 41, "unit": "nM"}
    ]}
  ]
}
